Measurements reported in PubChem BioAssay AID1963843 (Molecular Pharmacology Branch, DTP, NCI, 2024).

Test system: 616215-338-R-J1-PDC complex spheroid viability
Test: Anticancer human tumor 616215-338-R-J1-PDC patient-derived colon adenocarcinoma cell line growth inhibition [POLQ]
Conditions: for IC50: curve of first compound; for viability, T/C: stronger effect = lower value
Procedure, shortened: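 Growth inhibition in 3D: complex spheroids (tumor PDC, HUVEC, MSC) treated with POLQ inhibitor combinations; where Cmax unknown, highest tested concentration 10 microM, except SN-38 at 1 microM.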

[1] = second compound 0.0316 µM, first compound 0.0316 µM
[2] = second compound 0.0316 µM, first compound 0.1 µM
[3] = second compound 0.0316 µM, first compound 0.316 µM
[4] = second compound 0.0316 µM, first compound 1 µM
[5] = second compound 0.0316 µM, first compound 3.16 µM
[6] = second compound 0.0316 µM, first compound 10 µM
[7] = second compound 0.1 µM, first compound 0.0316 µM
[8] = second compound 0.1 µM, first compound 0.1 µM
[9] = second compound 0.1 µM, first compound 0.316 µM
[10] = second compound 0.1 µM, first compound 1 µM
[11] = second compound 0.1 µM, first compound 3.16 µM
[12] = second compound 0.1 µM, first compound 10 µM
[13] = second compound 0.316 µM, first compound 0.0316 µM
[14] = second compound 0.316 µM, first compound 0.1 µM
[15] = second compound 0.316 µM, first compound 0.316 µM
[16] = second compound 0.316 µM, first compound 1 µM
[17] = second compound 0.316 µM, first compound 3.16 µM
[18] = second compound 0.316 µM, first compound 10 µM
[19] = second compound 1 µM, first compound 0.0316 µM
[20] = second compound 1 µM, first compound 0.1 µM
[21] = second compound 1 µM, first compound 0.316 µM
[22] = second compound 1 µM, first compound 1 µM
[23] = second compound 1 µM, first compound 3.16 µM
[24] = second compound 1 µM, first compound 10 µM
[25] = second compound 3.16 µM, first compound 0.0316 µM
[26] = second compound 3.16 µM, first compound 0.1 µM
[27] = second compound 3.16 µM, first compound 0.316 µM
[28] = second compound 3.16 µM, first compound 1 µM
[29] = second compound 3.16 µM, first compound 3.16 µM
[30] = second compound 3.16 µM, first compound 10 µM
[31] = second compound 10 µM, first compound 0.0316 µM
[32] = second compound 10 µM, first compound 0.1 µM
[33] = second compound 10 µM, first compound 0.316 µM
[34] = second compound 10 µM, first compound 1 µM
[35] = second compound 10 µM, first compound 3.16 µM
[36] = second compound 10 µM, first compound 10 µM
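Note: spheroids exposed to compounds for one week before readout.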
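Throughout, for viability, T/C: percent viability relative to DMSO vehicle wells taken as 100%.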

COc1cc(C2c3cc4c(cc3C(OC3OC5COC(C)OC5C(O)C3O)C3COC(=O)C23)OCO4)cc(OC)c1O (centres undefined) + Cc1cccc(N(C)C(=O)C2C(O)CCN2c2nc(C)cc(C(F)(F)F)c2C#N)c1
IC50 (second compound 0.0316 µM): > 10 µM
IC50 (second compound 0.1 µM): > 10 µM
IC50 (second compound 0.316 µM): 9.66 µM
IC50 (second compound 1 µM): 9.43 µM
IC50 (second compound 3.16 µM): > 10 µM
IC50 (second compound 10 µM): 9.51 µM
viability, T/C [1]: 95.8%
viability, T/C [2]: 102%
viability, T/C [3]: 85.3%
viability, T/C [4]: 94%
viability, T/C [5]: 70.9%
viability, T/C [6]: 61.5%
viability, T/C [7]: 94.8%
viability, T/C [8]: 95.5%
viability, T/C [9]: 94.1%
viability, T/C [10]: 77.9%
viability, T/C [11]: 80.6%
viability, T/C [12]: 50.8%
viability, T/C [13]: 95.4%
viability, T/C [14]: 101%
viability, T/C [15]: 88.6%
viability, T/C [16]: 85.1%
viability, T/C [17]: 73.4%
viability, T/C [18]: 48.8%
viability, T/C [19]: 94.4%
viability, T/C [20]: 96.5%
viability, T/C [21]: 85.4%
viability, T/C [22]: 81.4%
viability, T/C [23]: 76.7%
viability, T/C [24]: 47.2%
viability, T/C [25]: 105%
viability, T/C [26]: 106%
viability, T/C [27]: 80.5%
viability, T/C [28]: 81.7%
viability, T/C [29]: 78%
viability, T/C [30]: 48.9%
viability, T/C [31]: 107%
viability, T/C [32]: 102%
viability, T/C [33]: 68.4%
viability, T/C [34]: 93.3%
viability, T/C [35]: 67.4%
viability, T/C [36]: 44.7%

O=c1[nH]cc(F)c(=O)[nH]1 + Cc1cccc(N(C)C(=O)C2C(O)CCN2c2nc(C)cc(C(F)(F)F)c2C#N)c1
IC50 (second compound 0.0316 µM): > 10 µM
IC50 (second compound 0.1 µM): > 10 µM
IC50 (second compound 0.316 µM): > 10 µM
IC50 (second compound 1 µM): > 10 µM
IC50 (second compound 3.16 µM): > 10 µM
IC50 (second compound 10 µM): > 10 µM
viability, T/C [1]: 92.1%
viability, T/C [2]: 108%
viability, T/C [3]: 69.8%
viability, T/C [4]: 68.6%
viability, T/C [5]: 61.2%
viability, T/C [6]: 56.3%
viability, T/C [7]: 101%
viability, T/C [8]: 108%
viability, T/C [9]: 68.7%
viability, T/C [10]: 61.7%
viability, T/C [11]: 60.1%
viability, T/C [12]: 63.4%
viability, T/C [13]: 102%
viability, T/C [14]: 116%
viability, T/C [15]: 75.6%
viability, T/C [16]: 57.5%
viability, T/C [17]: 56.9%
viability, T/C [18]: 66.8%
viability, T/C [19]: 106%
viability, T/C [20]: 99.7%
viability, T/C [21]: 68.6%
viability, T/C [22]: 65.1%
viability, T/C [23]: 56.2%
viability, T/C [24]: 58.2%
viability, T/C [25]: 99.9%
viability, T/C [26]: 102%
viability, T/C [27]: 70%
viability, T/C [28]: 63.6%
viability, T/C [29]: 59.9%
viability, T/C [30]: 64.2%
viability, T/C [31]: 97.6%
viability, T/C [32]: 106%
viability, T/C [33]: 70.3%
viability, T/C [34]: 54.9%
viability, T/C [35]: 54.5%
viability, T/C [36]: 59.6%
